Measurements reported in US20220242853A1, “MODIFIED CYANINE DYES AND CONJUGATES THEREOF” (BRACCO IMAGING S.P.A., priority 2019, published 2022).

How the values were obtained:
[1] = system: WM-266-4 human melanoma cells; experiment: Cell uptake by flow cytometry (FACS); format: cell-based
Experimental: The human melanoma cell line WM-266-4 (ATCC, CRL-1676) was used as in vitro model to assess the cell uptake of representative integrin-binding Compounds 1 and 3, based on the high expression of the integrin receptors, particularly αvβ3, on the membrane of these cells (Capasso et al., PlosOne 2014).
Adherent cells at about 70% confluence were incubated with the compounds 1 or 3 (1 μM) for 2h at 37° C. (5% CO2) in presence of Dulbecco's Modified Eagle's Medium (DMEM) supplemented with 10% FBS, 2 mM glutamine, 100 IU/mL penicillin and 100 μg/mL streptomycin. After two washing steps with PBS, cells were detached using 0.1 mM EDTA in PBS, centrifuged and suspended in buffer (PBS, 0.5% BSA, 0.1% NaN3) for flow cytometry experiments. Fluorescence Activated Cell Sorting (FACS) was used to detect the fluorescence signal within the cells, as measure of cell uptake. Samples were excited with an Argon laser and the emission detected using a 670 nm longpass filter. Values of fluorescence intensity were obtained from the histogram statistic produced by the instrument software.
The residual internalization was calculated by considering the value of fluorescence intensity in absence of the competitor as 100%.
Furthermore, to assess the effect of biological fluids on the cell uptake, parallel experiments were performed incubating the cells with a compounds of the invention in presence of human serum from male AB plasma (Sigma Aldrich, H4522) or human albumin (Sigma Aldrich, A9511). The residual internalization was calculated by considering the value of fluorescence intensity in absence of the serum as 100%. Such uptake assessment also represents an indication of the percentage of compound which is sequestered by the plasma proteins, in particular albumin, when it diffuses through the vascular compartment before reaching the tissue of interest and the particular targeted receptor.

[2] = target: T1, human serum albumin (HSA) (Homo sapiens, UniProt P02768); experiment: Binding affinity to human serum albumin (absorbance peak shift or ultrafiltration method); conditions: for Kd: phosphate buffer, 25° C., one of the two methods, read-out: HSA affinity (KA) (converted)
T1 construct: purchased Sigma Aldrich A9511
Experimental: Binding affinity to human serum albumin (HSA; Sigma Aldrich, A9511) was measured using two methods, according to the level of binding affinity of the compounds.
The first method, optimal for compounds which strongly interact with HSA, is based on the analysis of the absorbance spectrum peak shift after the incubation of the dye in solutions containing HSA. Briefly, the samples were incubated at a fixed concentration (1 μM) with HSA dilutions (1×10^−6-4×10^−4M), in phosphate buffer for 5 min in the spectrophotometer at 25° C. before measurements. The measure was performed at the maximum absorbance wavelength of the shifted peak.
The second method, optimal for compound with low affinity for HSA, is based on measuring the variation of the absorbance of solutions containing the dye and various concentrations of HSA after ultrafiltration. Briefly, each compound was incubated at a fixed concentration (2 μM) with HSA dilutions (1×10^−6-4×10^−4 M), in phosphate buffer. The samples were centrifuged (10,000 g for 30 min at 25° C.) in a Microcon device (10 kDa MWCO, Amicon Ultra-0.5 Centrifugal Filter Unit with Ultracel-10 membrane, Millipore) and the absorbance measurements of the filtrates were obtained with the spectrophotometer at the maximum absorbance wavelength of the fluorophore.
For both methods, the affinity constant (KA, M^−1) was calculated by fitting the raw data with the following formula:
wherein ΔA/b=Absorbance measured (b=1 cm) KRL=KA calculated by regression analysis (curve fitting) Δε·Rt calculated by regression analysis (curve fitting) [L]=Albumin concentration
In the first method, ΔA/b corresponds to the absorbance measured for each sample, whereas in the second method ΔA/b is obtained subtracting the absorbance of the control sample (dye without HSA) to the absorbance of each other sample.
However, the measurement of the affinity constant is more precise when the suitable method is used as a function of the affinity level of the compound.

[3] = target: T2, human recombinant integrin αvβ3 (Homo sapiens, UniProt P05106+P06756); experiment: Integrin receptor affinity ELISA (vitronectin-coated plates); format: binding
T2 construct: purchased R&D Systems

[4] = Optical properties: excitation/emission maxima and absolute fluorescence quantum yield; format: physicochemical
Experimental: Analysis were performed with a Waters Atlantis dC18 5 μm, 4.6×150 mm column using a gradient of phase A CH3COONH4 10 mM and phase B acetonitrile. Measured mass/charge ratios are listed for each compound. A dual-beam UV-VIS spectrophotometer (Lambda 40, Perkin Elmer) was used to determine the absorbance (Abs) of the compounds of the invention. […] The measurements were performed using an excitation wavelength at maximum absorbance of different dyes, and the sample was excited with a […] Xenon Light Source. Detection was performed by photomultiplier tubes (PMT-NIR) cooled detector or by TBX-04 detector. Dye solutions were carefully prepared to have an absorbance lower than 0.1 (optical densities) to minimize re-absorption phenomena. The compounds of the invention have been characterized in terms of their optical properties in vitro in aqueous medium (i.e., water/PBS pH 7.4) and in a clinical chemistry control serum (Seronorm, Sero SA), mimicking the chemical composition and optical properties of human serum. All dye or dye-conjugate solutions were freshly prepared.

[5] = Biodistribution and elimination by optical imaging after intravenous administration; format: in vivo, Balb/c nu/nu mice; conditions: ex vivo, 24 hours after iv 1 nmol/mouse
Experimental: Biodistribution and elimination of the fluorescent agents of the invention was evaluated by optical imaging after intravenous administration in male Balb/c nu/nu mice, 6-10 weeks of age (Charles River Laboratories). Briefly, mice housed 4 per cage and fed with VRF1 (P) sterile diet (Special Diets Services Ltd) up to the end of the acclimation period (5 days). Then, AIN-76a rodent diet irradiated (Research Diets), a special diet that reduces auto-fluorescence, was used up to the end of the experiments. Imaging experiments were performed using the preclinical optical system IVIS Spectrum (Perkin Elmer).
In vivo imaging was performed under gas anesthesia (Sevofluorane 6-8% in oxygen). Animals were intravenously injected with the compounds and imaged longitudinally at 30 min, 1 h, 2 h, 3 h, 4 h, 6 h, and 24 h post-administration. Thus, animals were euthanized by anesthesia overdose, and the main tissues and organs of interest were excised for ex vivo optical imaging. Regions of interest (ROIs) were drawn on the tissues of interest for each fluorescence image at every time point to evaluate signal intensity (expressed as Average adiant Efficiency). The ratio between the fluorescence signal in the muscle (background tissue) and excretory organs (kidney, liver) was then calculated to assess the contrast. The tissue half-life was calculated by fitting the fluorescence signal decay in the muscle with a bi-exponential decay equation model using GraphPad Prism Software (version 5 for Windows).

Row | Kd [2] [µM] | Max Em ([4]; PBS pH 7.4) [nm] | Max Ex ([4]; PBS pH 7.4) [nm] | Φ (absolute fluorescence quantum yield) ([4]; PBS pH 7.4) [%] | Φ (absolute fluorescence quantum yield) ([4]; Seronorm control serum) [%] | HSA KA ([2]; first method (absorbance peak shift)) | HSA KA ([2]; second method (ultrafiltration)) | Compound | Residual cell uptake in presence of human serum ([1]; 1 μM, 2h at 37° C., uptake without serum = 100%) [%] | Residual uptake in the presence of c(RGDfK) as competitor ([1]; 100 μM c(RGDfK), uptake without competitor = 100%) [%] | IC50 [3] [µM] | Kidney to muscle ratio [5] | Liver to muscle ratio [5]
1 |  | 665 | 645 | 27.0 | 35.6 |  |  | CN1/C(=C/C=C/C=C/C2=[N+](CCCCCC(=O)O)c3ccc(S(=O)(=O)[O-])cc3C2(C)C)C(C)(C)c2cc(S(=O)(=O)O)ccc21 [Sulfo-Cy5, reference compound] |  |  |  |  | 
2 |  |  |  |  |  | 215,000 M^−1 | 216,000 M^−1 | IRDye 800CW carboxylate [reference compound] |  |  |  |  | 

More lines, now with the values behind:

Row | Compound | Kd [2] [µM] | Max Em ([4]; PBS pH 7.4) [nm] | Max Ex ([4]; PBS pH 7.4) [nm] | Φ (absolute fluorescence quantum yield) ([4]; PBS pH 7.4) [%] | Φ (absolute fluorescence quantum yield) ([4]; Seronorm control serum) [%] | HSA KA ([2]; first method (absorbance peak shift)) | HSA KA ([2]; second method (ultrafiltration)) | Residual cell uptake in presence of human serum ([1]; 1 μM, 2h at 37° C., uptake without serum = 100%) [%] | Residual uptake in the presence of c(RGDfK) as competitor ([1]; 100 μM c(RGDfK), uptake without competitor = 100%) [%] | IC50 [3] [µM] | Kidney to muscle ratio [5] | Liver to muscle ratio [5]
3 | CC(CC[N+]1=C(/C=C/C=C/C=C/C=C2/N(CCCCCC(=O)NCC3C[C@@H]4CC[C@H]5C(=O)N[C@@H](CCCNC(=N)N)C(=O)NCC(=O)N[C@@H](CC(=O)O)C(=O)N[C@H]3C(=O)N45)c3ccc(C(=O)NCC(O)C(O)C(O)C(O)CO)cc3C2(C)C)C(C)(C)c2cc(C(=O)NCC(O)C(O)C(O)C(O)CO)ccc21)S(=O)(=O)[O-] (stereo partly drawn) [Compound 3] | 238 | 785 | 757 | 10.6 | 11.7 |  |  | 75 | 15 | 0.00264 ± 0.00035 | 2.90 ± 0.55 | 2.50 ± 0.32
4 | CC(CC[N+]1=C(/C=C/C=C/C=C/C=C2/N(CCCCCC(=O)O)c3ccc(C(=O)NCC(O)C(O)C(O)C(O)CO)cc3C2(C)C)C(C)(C)c2cc(C(=O)NCC(O)C(O)C(O)C(O)CO)ccc21)S(=O)(=O)[O-] (stereo not drawn) [Compound 4] | 196 | 785 | 755 | 8.9 | 13.4 |  |  |  |  |  |  | 
5 | CC1(C)C(/C=C/C=C/C=C2/N(CCCCCC(=O)O)c3ccc(C(=O)NCC(O)C(O)C(O)C(O)CO)cc3C2(C)C)=[N+](CCCCS(=O)(=O)[O-])c2ccc(C(=O)NCC(O)C(O)C(O)C(O)CO)cc21 (stereo not drawn) [Compound 6] | > 1000 | 675 | 656 | 35.6 | 35.9 |  |  |  |  |  |  | 
6 | CC1(C)C(/C=C/C=C/C=C2/N(CCCCCC(=O)O)c3ccc(C(=O)NC(CO)(CO)CO)cc3C2(C)C)=[N+](CCCCS(=O)(=O)[O-])c2ccc(C(=O)NC(CO)(CO)CO)cc21 [Compound 7] | 289 | 675 | 655 | 35.1 | 35.1 |  |  |  |  |  |  | 
7 | CC1(C)C(/C=C/C=C/C=C/C=C2\N(CCCCS(=O)(=O)O)c3ccc4ccccc4c3C2(C)C)=[N+](CCCCS(=O)(=O)[O-])c2ccc3ccccc3c21 [ICG, Indocyanine Green, reference compound] | 2.88 | 810 | 780 | 1.5 | 7.8 |  |  |  |  |  |  | 
